Data as given in patent publication US6929810B2, “Preparation of essential oil compositions for portable liquid disinfection” (Council of Scientific and Industrial Research, priority 2001, dated 2005).

These compounds were tested on E. coli (assay: bore-well method (zone of inhibition)). Conditions: standard antibiotics available in the market.
Assay type: cell-based

Row | Compound | Zone of Inhibition, Antibiotic
1 | CN(C)[C@@H]1C(O)=C(C(N)=O)C(=O)[C@@]2(O)C(O)=C3C(=O)c4c(O)cccc4[C@@](C)(O)[C@H]3C[C@@H]12 [Tetracycline] | 24 mm
2 | CC[C@H]1OC(=O)[C@H](C)[C@@H](O[C@H]2C[C@@](C)(OC)[C@@H](O)[C@H](C)O2)[C@H](C)[C@@H](O[C@@H]2O[C@H](C)C[C@H](N(C)C)[C@H]2O)[C@](C)(O)C[C@@H](C)C(=O)[C@H](C)[C@@H](O)[C@]1(C)O [Erythromycin] | 10 mm
3 | CC1(C)S[C@@H]2[C@H](NC(=O)[C@H](N)c3ccccc3)C(=O)N2[C@H]1C(=O)O [Ampicillin] | 14 mm
4 | O=C(N[C@H](CO)[C@H](O)c1ccc([N+](=O)[O-])cc1)C(Cl)Cl [Chloromphenilcol] | 35 mm
5 | Gentamycin | 24 mm
6 | NC[C@H]1O[C@H](O[C@H]2[C@H](O)[C@@H](O[C@H]3O[C@H](CO)[C@@H](O)[C@H](N)[C@H]3O)[C@H](N)C[C@@H]2N)[C@H](O)[C@@H](O)[C@@H]1O [Kanamycin] | 30 mm
